From BindingDB's records for doi:10.3109/14756366.2013.768987 (Medical University, 2014)

Key:
DNA topoisomerase 1 = molecular target: T1, DNA topoisomerase 1 (Homo sapiens, UniProt P11387); assay: Topoisomerase I Relaxation Assay; details: pH 7.8; 37 °C
T1 sequence (P11387 whole entry): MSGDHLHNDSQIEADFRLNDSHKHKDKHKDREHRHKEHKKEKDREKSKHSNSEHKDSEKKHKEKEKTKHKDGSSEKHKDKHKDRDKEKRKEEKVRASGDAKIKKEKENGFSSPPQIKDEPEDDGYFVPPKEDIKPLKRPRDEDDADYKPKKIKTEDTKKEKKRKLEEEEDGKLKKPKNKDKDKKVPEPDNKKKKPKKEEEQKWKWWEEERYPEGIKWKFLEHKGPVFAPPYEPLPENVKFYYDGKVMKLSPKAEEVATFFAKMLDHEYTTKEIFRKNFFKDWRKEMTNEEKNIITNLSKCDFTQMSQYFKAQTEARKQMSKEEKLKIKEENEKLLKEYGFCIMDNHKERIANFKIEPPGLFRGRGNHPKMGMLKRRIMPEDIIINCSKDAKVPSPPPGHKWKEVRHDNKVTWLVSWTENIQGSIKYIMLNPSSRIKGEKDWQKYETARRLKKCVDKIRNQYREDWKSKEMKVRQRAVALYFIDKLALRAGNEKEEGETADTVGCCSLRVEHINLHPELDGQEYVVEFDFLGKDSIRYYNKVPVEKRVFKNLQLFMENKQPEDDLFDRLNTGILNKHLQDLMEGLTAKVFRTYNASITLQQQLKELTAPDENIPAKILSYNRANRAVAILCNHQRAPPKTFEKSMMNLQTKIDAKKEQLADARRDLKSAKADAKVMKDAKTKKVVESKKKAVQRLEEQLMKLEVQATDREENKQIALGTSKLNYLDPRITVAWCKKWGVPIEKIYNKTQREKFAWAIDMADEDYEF
Protocol: Supercoiled pHOT1 DNA (0.5 μg) was incubated with four units of human topoisomerase I in relaxation buffer (10mM Tris-HCl (pH 7.8), 1mM EDTA, 0.15M NaCl, 0.1% BSA, 0.1 spermidine, 5% glycerol), in the presence of varying concentrations of the test compounds. Reactions were carried out at 37 °Cfor 1 h and then terminated by the addition of sodium dodecyl sulfate (SDS) to 0.25% and proteinase K to 50 μg/ml. The reaction mixture was subjected to electrophoresis through a 0.8% agarose gel containing […] in TAE buffer ([…] and 1mM EDTA). The gels were stained with ethidium bromide and photographed under UV light. For the quantitative determination of topoisomerase concentration activity, photographic negatives were scanned and the area representing supercoiled DNA, migrating as a single band at the bottom of the gel was measured using UVI-KS4000i gel documentation and analysis system (SyngenBiotech, Sacramento, CA).

[1] = molecular target: DNA topoisomerase I (Homo sapiens); assay: Supercoiled pHOT1 DNA (0.5 μg) was incubated with four units of human topoisomerase I in relaxation buffer (10mM Tris-HCl (pH 7.8), 1mM EDTA, 0.15M NaCl, 0.1% BSA, 0.1 spermidine, 5% glycerol), in the presence of varying concentrations of the test compounds. Reactions were carried out at 37 °Cfor 1 h and then terminated by the addition o

SMILES | IC50 (DNA topoisomerase 1) [µM] | IC50 [1] [µM]
COc1ccc(NC(=S)NNC(=O)C2CCNCC2)cc1 [DNA topoisomerase inhibitor, 4] | 250 | 250
COc1cc([C@@H]2c3cc4c(cc3[C@@H](O[C@@H]3O[C@@H]5CO[C@@H](C)O[C@H]5[C@H](O)[C@H]3O)[C@H]3COC(=O)[C@H]23)OCO4)cc(OC)c1O [4'-Demethylepipodophyllotoxin 9-(4,6-O-(R)-ethylidene-beta-D-glucopyranoside)] | > 350 | 
CCNC(=S)NNC(=O)C1CCNCC1 [DNA topoisomerase inhibitor, 8] | > 350 | > 350
O=C(NNC(=S)Nc1ccccc1)C1CCNCC1 [DNA topoisomerase inhibitor, 3] | 250 | 250
O=C(NNC(=S)Nc1ccc(I)cc1)C1CCNCC1 [DNA topoisomerase inhibitor, 5] | 250 | 250
CCc1ccc(NC(=S)NNC(=O)C2CCNCC2)cc1 [DNA topoisomerase inhibitor, 7] | > 350 | > 350
O=C(NC(=S)NNC(=O)c1cc2ccccc2[nH]1)c1ccccc1 [DNA topoisomerase inhibitor, 2] | 100 | 50
Cc1nc[nH]c1C(=O)NNC(=S)NC(=O)c1ccccc1 [DNA topoisomerase inhibitor, 1] | 100 | 50
O=C(NNC(=S)Nc1ccc(Br)cc1)C1CCNCC1 [DNA topoisomerase inhibitor, 6] | 250 | 250
